Measured values: PMC12635268, “Novel antimicrobial peptides and peptide-microbiome crosstalk in Appalachian salamander skin” (NPJ Biofilms and Microbiomes, 2025)
Ends that are not written are not given here. Peptide text beside a SMILES is read from it.

Columns and labels:
[1] = system: A. baumannii ATCC 17978; assay: microbe, parasite or virus in culture; conditions: ATCC 17978, 20 h
Description: (§1) Antimicrobial susceptibility testing of the 20 synthesized peptides against 17 bacterial strains of clinical relevance in the ESKAPEE panel was conducted using minimum inhibitory concentration (MIC) assays following the broth microdilution method outlined by Parker et al.[91]. The ESKAPEE panel is comprised of fourteen American Type Culture Collection (ATCC) strains and three Multidrug Resistant Organism Repository and Surveillance Network (MRSN) bacterial strains. These strains represent at least one drug-susceptible strain and one drug-resistant strain for each bacterium to assess drug efficacy across various resistance mechanisms. This panel is comprised of the following bacterial species and strains: E. faecium (ATCC 19434, ATCC 49224), S. aureus (ATCC 25923, ATCC 43300), K. pneumoniae (ATCC 700603, ATCC 13883, MRSN 1320), A. baumannii (ATCC 17978, ATCC 19606, MRSN 959), P. aeruginosa (ATCC 15692, ATCC 27853, MRSN 5519), E. cloacae (ATCC 13047, ATCC 35549), and E. coli (ATCC 35218, ATCC 43888). Bacteria were grown in cation-adjusted Mueller-Hinton broth (CAMHB) to achieve a final inoculum of 1 × 10⁵ CFU/mL. CAMHB is selected for its batch-to-batch reproducibility, low levels of antimicrobial inhibitors, and ability to support the growth of most bacterial pathogens.
(§2) Briefly, lyophilized peptides were dissolved in 0.2% TFA + 0.4% BSA in water to 2.56 mg/mL, ultrasonicated for 20 min, diluted 10-fold into CAMHB, and then serially diluted 2-fold in 0.02% TFA + 0.04% BSA in CAMHB and assayed at a concentration of 0.25 to 128 μg/mL. Assays were set up using the Tecan Freedom EVO liquid handling robot and software (Tecan, Switzerland) with 50 μL of bacterial inoculum and 50 μL of peptide transferred into round-bottom 96-well microtiter plates. Each plate assay was performed in duplicate and incubated at 37 °C for 20 h without agitation. Bacterial growth was assessed using the BIOMIC V3 Image Analysis system (Giles Scientific, USA) and the MIC values were determined visually according to the Clinical and Laboratory Standards Institute (CLSI) guidelines.

[2] = system: A. baumannii ATCC 19606; assay: microbe, parasite or virus in culture; conditions: ATCC 19606, 20 h
Description: as §1, §2

[3] = system: E. cloacae ATCC 13047; assay: microbe, parasite or virus in culture; conditions: ATCC 13047, 20 h
Description: as §1, §2

[4] = system: E. cloacae ATCC 35549; assay: microbe, parasite or virus in culture; conditions: ATCC 35549, 20 h
Description: as §1, §2

[5] = system: E. coli ATCC 35218; assay: microbe, parasite or virus in culture; conditions: E. coli 35218; Week 1 (12/6/2023)
Description: as §1, §2

[6] = system: E. coli ATCC 43888; assay: microbe, parasite or virus in culture; conditions: ATCC 43888, 20 h
Description: as §1, §2

[7] = system: E. faecium ATCC 19434; assay: microbe, parasite or virus in culture; conditions: ATCC 19434, 20 h
Description: as §1, §2

[8] = system: E. faecium ATCC 49224; assay: microbe, parasite or virus in culture; conditions: ATCC 49224, 20 h
Description: as §1, §2

[9] = system: K. pneumoniae ATCC 13883; assay: microbe, parasite or virus in culture; conditions: ATCC 13883, 20 h
Description: as §1, §2

[10] = system: K. pneumoniae ATCC 700603; assay: microbe, parasite or virus in culture; conditions: K. pneumoniae 700603; Week 1 (12/6/2023)
Description: as §1, §2

[11] = system: P. aeruginosa ATCC 27853; assay: microbe, parasite or virus in culture; conditions: ATCC 27853, 20 h
Description: as §1, §2

[12] = system: P. aeruginosa MRSN 5519; assay: microbe, parasite or virus in culture; conditions: MRSN 5519, 20 h
Description: as §1, §2

[13] = system: S. aureus ATCC 25923; assay: microbe, parasite or virus in culture; conditions: ATCC 25923, 20 h
Description: as §1, §2

[14] = system: S. aureus ATCC 43300; assay: microbe, parasite or virus in culture; conditions: S. aureus 43300; Week 1 (12/6/2023)
Description: as §1, §2

[15] = system: P. aeruginosa PA01 (Si); assay: microbe, parasite or virus in culture; format: cell-based; conditions: Si
Excerpt: Supplement 41522_2025_837_MOESM13_ESM.xlsx, sheet "Table_S13_ESKAPEE-MIC" | column: Bacterial MIC (µg/mL)

[16] = system: K. pneumoniae 4640; conditions: 4640, 20 h
[17] = system: A. baumannii 5075; conditions: Week 1 (12/6/2023)
[18] = design: method as in Biomatik (vendor); conditions: 1.0 mg peptide in 1.0 ml solvent; peptides synthesized by Biomatik; ref Biomatik (vendor); cited from earlier work

| Compound | Bacterial MIC [1] [µg/mL] | Bacterial MIC [2] [µg/mL] | Bacterial MIC [3] [µg/mL] | Bacterial MIC [4] [µg/mL] | Bacterial MIC [5] [µg/mL] | Bacterial MIC [6] [µg/mL] | Bacterial MIC [7] [µg/mL] | Bacterial MIC [8] [µg/mL] | Bacterial MIC [9] [µg/mL] | Bacterial MIC [10] [µg/mL] | Bacterial MIC [11] [µg/mL] | Bacterial MIC [12] [µg/mL] | Bacterial MIC [13] [µg/mL] | Bacterial MIC [14] [µg/mL] | Bacterial MIC [15] [µg/mL] | Bacterial MIC [16] [µg/mL] | Bacterial MIC [17] [µg/mL] | Suggest solvent (solubility) [18] |
| --- | --- | --- | --- | --- | --- | --- | --- | --- | --- | --- | --- | --- | --- | --- | --- | --- | --- | --- |
| CC[C@H](C)[C@H](NC(=O)CNC(=O)CNC(=O)[C@@H](NC(=O)[C@H](CS)NC(=O)[C@H](CCCCN)NC(=O)[C@H](CCCCN)NC(=O)CNC(=O)[C@@H](NC(=O)[C@@H]1CCCN1C(=O)[C@@H](N)CCC(N)=O)[C@@H](C)CC)[C@@H](C)O)C(=O)N[C@@H](CC(N)=O)C(=O)N[C@@H](CS)C(=O)N[C@@H](CCCCN)C(=O)N[C@@H](CCCCN)C(=O)NCC(=O)N1CCC[C@H]1C(=O)N1CCC[C@H]1C(=O)N[C@@H](CCCNC(=N)N)C(=O)N[C@@H](CC(C)C)C(=O)N[C@@H](CCCCN)C(=O)N1CCC[C@H]1C(=O)NCC(=O)O [TrPr-Pc6] (H-QPIGKKCTGGINCKKGPPRLKPG-OH; N-terminus and C-terminus assumed) | >128.000 | >128.000 | >128.000 | >128.000 | >128.000 | >128.000 | >128.000 | >128.000 | >128.000 | >128.000 | >128.000 | >128.000 | >128.000 | >128.000 | >128.000 | >128.000 | >128.000 | 1.0mg peptide soluble in 1.0ml H2O |
| IRRPPGFSPFR [PrAd-Eb8] | >128.000 | >128.000 | >128.000 | >128.000 | >128.000 | >128.000 | >128.000 | >128.000 | >128.000 | >128.000 | >128.000 | >128.000 | >128.000 | >128.000 | >128.000 | >128.000 | >128.000 | 1.0mg peptide soluble in 1.0ml H2O |
